# Like-named read-outs stand apart in the source and are kept apart here.
# Experiments:
# [1] = test system: microtubules in Hela cells; assay: Immunofluorescence staining of microtubules and spindles in Hela cells; assay type: cell-based, human; settings: for effect on mitotic spindles: Hela metaphase cells, IC50, 24 h; for effect on interphase cellular microtubules: Hela, immunofluorescence, IC80
# Experimental: (§1) Then, cells were fixed in 4% paraformaldehyde at 4 °C for 20 min and permeabilized by 0.3% (v/v) Triton X-100 for 10 min. Nonspecific binding sites on the coverslips were blocked by incubating them with 5% FBS for 1 h. To stain the microtubules, cells were firstly incubated with 1:100 mouse anti-α-tubulin monoclonal IgG for 1 h and then with 1:200 goat anti-mouse […] for 1 h. Cells were then incubated with […] Atto 390 phalloidin for 45 min to stain the actin filaments and 20 μg/mL propidium iodide for 30 min to stain the cell nucleus/chromosomes. After washing steps, the coverslips were mounted by mowiol. Microtubules, actin filaments and cell nucleus/chromosomes were observed and analyzed using the Keyence BZ-9000 microscope as described before.
# Hela cells [2] = assay: Cell cycle analysis by flow cytometry (propidium iodide); assay type: cell-based, human
# Experimental: Cell cycle analysis was carried out as established in our laboratory. Hela cells (5 × 10^5) were seeded in 6-well plates and treated with different concentrations of alkaloids for 24 h. Cells were then collected, centrifuged and fixed in 70% ice-cold ethanol for at least 8 h. After the washing steps, cells were treated with 0.2 mg/mL RNase A for 30 min at 37 °C and then stained with 0.1 mg/mL propidium iodide. Samples were analyzed using a FACScan flow cytometer (Becton Dickinson, Heidelberg, Germany). Data were analyzed using Cell Quest™ Pro software (Becton Dickinson) and Microsoft Excel 2013 (Microsoft Corporation, Redmond, WA, USA).
# [3] = test system: actin filaments in Hela cells; assay: Imaging of actin filaments in Hela cells (actin-RFP, immunofluorescence); assay type: cell-based, human; settings: high concentration (IC80)
# Experimental: as §1
# Hela cells (2 × 10^4) were seeded in 24-well plates and mixed with CellLight® Actin-RFP BacMam 2.0, which is a fusion construct of human actin and TagRFP, providing an accurate and specific targeting to cellular actin filaments. After 16 h of incubation, 200 μL of different concentrations of alkaloids (IC80, IC50) were added into each well, and the cells were analyzed as described above (Section 4.4).
# [4] = test system: microtubules in U2OS cells; assay: Imaging of microtubule network in α-tubulin-GFP U2OS cells; assay type: cell-based, human
# Experimental: α-Tubulin-GFP U2OS cells (1 × 10^5) were seeded in 24-well plates and grown for 24 h. […] The images were analyzed using BZ-II Analyzer software (version 2.1, Keyence, Neu-Isenburg, Germany).
# [5] = biological target: T1, tubulin plus microtubule-associated proteins (MAPs) from porcine brains (Sus scrofa, UniProt P02550+P02554); assay: In vitro tubulin polymerization assay (light scattering at 360 nm); assay type: biochemical; settings: for IC50: 5.6 mg/mL tubulin-MAPs, 37 °C, 40 min, read-out: IC50 inhibition of tubulin polymerization in vitro; for effect on tubulin polymerization in vitro: tubulin-MAPs
# T1 construct: prepared from porcine brains (freshly obtained from a local slaughter house) by two cycles of polymerization and depolymerization; from tissue; host or cells: porcine brain
# Experimental: Tubulin plus microtubule-associated proteins (MAPs) were prepared from porcine brains (freshly obtained from a local slaughter house) by two cycles of polymerization and depolymerization according to a standard protocol. […] The rate and extent of the polymerization reaction were monitored by light scattering at 360 nm using Tecan infinite M200 Pro.
# (§2) All experiments were performed at least three times. Data are presented as the mean ± standard deviation. Statistical comparison between controls and different treatments were performed by an unpaired Student’s t-test. Significance was considered at p < 0.05.
# Hela cells [6] = assay: MTT cytotoxicity assay, Hela; assay type: cell-based, human; settings: 48 h, mean ± SD
# Experimental: (§3) The anti-proliferative effects of alkaloids were assessed using the MTT assay, as previously described. In brief, 1 × 10^4 cells were seeded in 96-well-plates and incubated with serial dilutions of alkaloids for 48 h (Hela, U2OS) and 72 h (MCF-7). MTT solution was then added and incubated for 2 h. After the addition of DMSO, the plate was read at 570 nm using the Tecan infinite M200 Pro (Tecan, Crailsheim, Germany).
# as §2
# MCF-7 cells = assay: MTT cytotoxicity assay, MCF-7; assay type: cell-based, human; settings: mean ± SD
# Experimental: as §3, §2
# U2OS cells = assay: MTT cytotoxicity assay, U2OS; assay type: cell-based, human; settings: 48 h, mean ± SD
# Experimental: as §3, §2
# [7] = test system: Hela, MCF-7 and U2OS cells; assay: MTT cytotoxicity, summary over three cell lines; assay type: cell-based; settings: Homo sapiens, MCF-7, U2OS
# Experimental: as §3, §2
# [8] = read-out: IC50 values, range over three cell lines
# [9] = U2OS α-tubulin-GFP, IC80 and IC50, 2-48 h
# [10] = read-out: IC50 values, range over all three cell lines
# T1 sequence (P02550 whole entry): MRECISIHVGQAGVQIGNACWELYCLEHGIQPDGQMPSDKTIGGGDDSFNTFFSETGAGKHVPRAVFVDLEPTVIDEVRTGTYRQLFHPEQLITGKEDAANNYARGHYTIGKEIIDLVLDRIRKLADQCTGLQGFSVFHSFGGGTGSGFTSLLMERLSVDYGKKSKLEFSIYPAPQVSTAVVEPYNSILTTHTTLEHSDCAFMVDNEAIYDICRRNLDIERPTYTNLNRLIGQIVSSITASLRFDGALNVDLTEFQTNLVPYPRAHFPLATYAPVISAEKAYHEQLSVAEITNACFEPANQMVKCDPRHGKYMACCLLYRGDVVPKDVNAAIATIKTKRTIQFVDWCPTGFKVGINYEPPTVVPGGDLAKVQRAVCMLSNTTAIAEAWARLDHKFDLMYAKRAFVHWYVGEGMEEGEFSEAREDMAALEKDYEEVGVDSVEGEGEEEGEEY
# T1 sequence (P02554 whole entry): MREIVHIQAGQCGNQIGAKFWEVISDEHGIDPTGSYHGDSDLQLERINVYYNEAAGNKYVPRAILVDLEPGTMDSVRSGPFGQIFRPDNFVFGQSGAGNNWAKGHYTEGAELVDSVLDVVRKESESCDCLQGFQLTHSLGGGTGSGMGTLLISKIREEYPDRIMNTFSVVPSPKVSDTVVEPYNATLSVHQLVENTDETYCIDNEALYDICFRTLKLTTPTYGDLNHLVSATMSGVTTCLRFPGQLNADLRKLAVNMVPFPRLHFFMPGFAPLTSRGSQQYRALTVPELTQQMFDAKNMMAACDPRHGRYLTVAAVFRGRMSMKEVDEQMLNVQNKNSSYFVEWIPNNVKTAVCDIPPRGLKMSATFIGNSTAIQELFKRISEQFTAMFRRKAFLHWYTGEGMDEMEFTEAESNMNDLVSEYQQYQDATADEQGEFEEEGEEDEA
SMILES,effect on mitotic spindles [1],effect on actin filaments [3],IC50 ([5]; mean ± SD) [µM],"IC50 (Hela cells [6]; Homo sapiens, HeLa) [nM]","IC50 (MCF-7 cells; Homo sapiens, MCF7, 72 h) [µM]","IC50 (U2OS cells; Homo sapiens, U2OS) [µM]","IC50 [7, 8] [nM]","effect on microtubule network [4, 9]",effect on cell cycle (Hela cells [2]; 24 h),IC50 [5] [µM],other results
"CN1Cc2c(ccc3c2OCO3)[C@@H]2[C@H]1c1cc3c(cc1C[C@@H]2O)OCO3 [Chelidonine, chelidonine]",multipolar spindles with chromosome congression failure,significant reduction of actin filament mass,34.5 ± 9.47,1130 ± 370,3.85 ± 0.1,3.86 ± 1.99,920 to 7630,,,,"G2/M population (Hela cells [2]; 2.5 μM, 24 h): 88.27% ± 0.99%; effect on microtubule network [4]: significantly decreased cellular microtubule mass"
"CC[C@]1(O)C[C@@H]2CN(CCc3c([nH]c4ccccc34)[C@@](C(=O)OC)(c3cc4c(cc3OC)N(C)[C@H]3[C@@](O)(C(=O)OC)[C@H](OC(C)=O)[C@]5(CC)C=CCN6CC[C@]43[C@@H]65)C2)C1 [Vinblastine, vinblastine]",depolymerized bipolar spindles,No apparent changes of actin filaments,1.42 ± 0.05,0.02 ± 0.01,7e-05 ± 5e-05,0.0001 ± 5e-05,,microtubules were extensively depolymerized and tubulin paracrystals were formed,,,"G2/M population (Hela cells [2]; 10 nM, 24 h): 78.04% ± 14.78%; IC50 [7, 10]: 0.02 to 0.1 nM"
"C/C1=C/C(=O)O[C@@H]2C[C@@H](CC[C@H](C)/C=C\CC1)O[C@@](O)([C@@H]1CSC(=O)N1)C2 [Latrunculin B, latrunculin B]",,extensive depolymerization of the actin network,,,,,,immediately changed the cell morphology,,,"G2/M population (Hela cells [2]; 7 μM, 24 h): 80.05% ± 11.89%; IC50 (Hela cells [6]): 7130 ± 610 nM; IC50 (MCF-7 cells; 72 h): 36.8 ± 2.25 µM; IC50 (U2OS cells): 5.48 ± 0.68 µM"
"COC(=O)C[C@](O)(CCCC(C)(C)O)C(=O)O[C@@H]1C(OC)=C[C@]23CCCN2CCc2cc4c(cc2[C@H]13)OCO4 [Homoharringtonine, homoharringtonine]",did not affect mitotic spindles,No apparent changes of actin filaments,,9.03 ± 0.38,0.00087 ± 0.00045,0.003 ± 0.00167,,No obvious changes on the cellular microtubule network,had no impact on the cell cycle,> 1000,"effect on tubulin polymerization in vitro [5]: did not affect tubulin polymerization; IC50 [7, 10]: 0.87 to 9.03 nM"
"COc1ccc2c(c1OC)C(=O)O[C@@H]2[C@H]1c2c(cc3c(c2OC)OCO3)CCN1C [Noscapine, noscapine]",multipolar spindles with chromosome congression failure,No apparent changes of actin filaments,,16800 ± 9790,35.2 ± 8.18,60.9 ± 12.2,,remarkably depolymerized the microtubule network and reduced its mass,,> 1000,"G2/M population (Hela cells [2]; 80 μM, 24 h): 73.42% ± 8.31%"
"CC(=O)O[C@H]1C(=O)[C@@]2(C)[C@H]([C@H](OC(=O)c3ccccc3)[C@]3(O)C[C@H](OC(=O)[C@H](O)[C@@H](NC(=O)c4ccccc4)c4ccccc4)C(C)=C1C3(C)C)[C@]1(OC(C)=O)CO[C@@H]1C[C@@H]2O [Paclitaxel, paclitaxel]","aberrant, but still bipolar spindles",No apparent changes of actin filaments,38.2 ± 3.33,0.08 ± 0.1,1.05 ± 0.43,0.23 ± 0.1,,promoted the polymerization of microtubules,,,"G2/M population (Hela cells [2]; 0.1 μM, 24 h): 80.37% ± 5.36%"
"COc1ccc2c(c[n+](C)c3c4cc5c(cc4ccc23)OCO5)c1OC [Chelerythrine, chelerythrine]","abnormal, but still bipolar spindles",significant reduction of actin filament mass,206 ± 4.2,3850 ± 2100,7.63 ± 3.43,2.88 ± 0.76,920 to 7630,displayed similar effects as sanguinarine,did not change the proportion of mitotic cells,,effect on interphase cellular microtubules [1]: significantly reduced the mass of microtubules
"COc1cc2c(c(OC)c1OC)-c1ccc(OC)c(=O)cc1[C@@H](NC(C)=O)CC2 [Colchicine, colchicine]",completely depolymerized spindle,No apparent changes of actin filaments,,,,,,reduced the mass of the microtubule network,,,"G2/M population (Hela cells [2]; 0.1 μM, 24 h): 89.66% ± 2.04%"
"C[n+]1cc2c3c(ccc2c2ccc4cc5c(cc4c21)OCO5)OCO3 [Sanguinarine, sanguinarine]",had no impact on mitotic spindles,significant reduction of actin filament mass,48.4 ± 3.73,1030 ± 40,1.24 ± 0.21,0.92 ± 0.53,920 to 7630,,did not change the proportion of mitotic cells,,effect on interphase cellular microtubules [1]: significantly reduced the mass of microtubules; effect on microtubule network [4]: disrupted microtubule distribution and altered their morphology
"CN1CCc2cc3c(cc2C(=O)Cc2ccc4c(c2C1)OCO4)OCO3 [Protopine, protopine]",thickened spindle arrays,No apparent changes of actin filaments,,27500 ± 11800,67.3 ± 9.06,62.4 ± 9.9,,notably enhanced the assembly of the microtubule network,,> 1000,"G2/M population (Hela cells [2]; 250 μM, 24 h): 54.35% ± 11.26%; G2/M population (Hela cells [2]; 250.9 μM): 54.35% ± 11.26%; effect on tubulin polymerization in vitro [5]: did not affect tubulin polymerization"
